ChEMBL document CHEMBL4507276 (2021)

Experiments:
[1] = biological target: Dual specificity tyrosine-phosphorylation-regulated kinase 1B (Homo sapiens) (UniProt Q9Y463); details: Compound concentration 1000.0 nM
[2] = biological target: Tyrosine-protein kinase Fes/Fps (Homo sapiens) (UniProt P07332); details: Compound concentration 1000.0 nM
[3] = biological target: Ephrin type-A receptor 6 (Homo sapiens) (UniProt Q9UF33); details: Compound concentration 1000.0 nM
[4] = biological target: Homeodomain-interacting protein kinase 1 (Homo sapiens) (UniProt Q86Z02); details: Compound concentration 1000.0 nM
[5] = biological target: Tyrosine-protein kinase FRK (Homo sapiens) (UniProt P42685); details: Compound concentration 1000.0 nM
Tyrosine-protein kinase FRK (Homo sapiens), sequence (P42685 whole entry): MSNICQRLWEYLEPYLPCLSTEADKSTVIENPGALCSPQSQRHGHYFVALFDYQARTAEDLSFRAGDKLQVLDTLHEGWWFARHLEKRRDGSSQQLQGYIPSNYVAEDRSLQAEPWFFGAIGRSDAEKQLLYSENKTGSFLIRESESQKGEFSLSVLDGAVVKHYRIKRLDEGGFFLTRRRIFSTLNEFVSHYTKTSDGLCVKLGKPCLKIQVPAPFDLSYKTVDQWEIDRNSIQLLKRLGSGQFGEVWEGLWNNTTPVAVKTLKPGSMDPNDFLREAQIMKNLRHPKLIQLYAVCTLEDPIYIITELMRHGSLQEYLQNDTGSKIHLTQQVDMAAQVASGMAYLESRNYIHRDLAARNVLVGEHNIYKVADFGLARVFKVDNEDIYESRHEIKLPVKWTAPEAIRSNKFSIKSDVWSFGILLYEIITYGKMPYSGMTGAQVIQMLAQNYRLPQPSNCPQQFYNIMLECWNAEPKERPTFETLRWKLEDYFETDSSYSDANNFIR

[6] = biological target: Glycogen synthase kinase-3 beta (Homo sapiens) (UniProt P49841); details: Compound concentration 1000.0 nM
Glycogen synthase kinase-3 beta (Homo sapiens), sequence (P49841 whole entry, looked up): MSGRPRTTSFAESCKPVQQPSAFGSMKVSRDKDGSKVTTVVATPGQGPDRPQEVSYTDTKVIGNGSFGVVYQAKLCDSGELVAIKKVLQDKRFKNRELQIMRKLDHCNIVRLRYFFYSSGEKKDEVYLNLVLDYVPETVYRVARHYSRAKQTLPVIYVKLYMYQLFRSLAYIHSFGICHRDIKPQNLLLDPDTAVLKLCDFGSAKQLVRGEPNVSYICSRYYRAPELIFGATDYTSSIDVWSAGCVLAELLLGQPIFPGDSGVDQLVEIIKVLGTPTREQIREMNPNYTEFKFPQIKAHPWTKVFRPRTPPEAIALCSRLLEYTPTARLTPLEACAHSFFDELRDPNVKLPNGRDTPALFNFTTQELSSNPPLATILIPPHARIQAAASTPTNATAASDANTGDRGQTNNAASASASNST

[7] = biological target: Sodium-dependent noradrenaline transporter (Homo sapiens) (UniProt P23975); details: Compound concentration 10.0 uM
[8] = biological target: Ribosomal protein S6 kinase alpha-2 (Homo sapiens) (UniProt Q15349); details: Compound concentration 1000.0 nM
[9] = test system: Epidermal growth factor receptor (Homo sapiens), P00533 [G719C]; details: Compound concentration 1000.0 nM
[10] = test system: Epidermal growth factor receptor (Homo sapiens), P00533 [L858R]; details: Compound concentration 1000.0 nM
[11] = biological target: Dual specificity protein kinase CLK1 (Homo sapiens) (UniProt P49759); details: Compound concentration 1000.0 nM
[12] = biological target: Calcium-dependent protein kinase 1 (Plasmodium falciparum) (UniProt P62344); details: Compound concentration 1000.0 nM
Calcium-dependent protein kinase 1 (Plasmodium falciparum), sequence (P62344 2-524 limits assumed): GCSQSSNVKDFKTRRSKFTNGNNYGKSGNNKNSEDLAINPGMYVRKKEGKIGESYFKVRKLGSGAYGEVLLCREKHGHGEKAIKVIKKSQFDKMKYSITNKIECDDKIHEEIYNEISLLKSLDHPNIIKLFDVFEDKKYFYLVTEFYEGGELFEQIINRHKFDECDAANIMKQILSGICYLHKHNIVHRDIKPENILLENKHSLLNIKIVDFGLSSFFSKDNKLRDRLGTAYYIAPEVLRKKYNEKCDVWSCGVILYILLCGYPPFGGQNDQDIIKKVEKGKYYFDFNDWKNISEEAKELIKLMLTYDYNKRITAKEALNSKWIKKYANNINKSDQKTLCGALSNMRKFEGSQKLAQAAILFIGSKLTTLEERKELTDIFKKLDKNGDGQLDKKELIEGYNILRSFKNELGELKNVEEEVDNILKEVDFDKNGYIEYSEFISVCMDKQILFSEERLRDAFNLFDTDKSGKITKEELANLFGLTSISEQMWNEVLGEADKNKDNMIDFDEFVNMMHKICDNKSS

[13] = biological target: Microtubule-associated serine/threonine-protein kinase 1 (Homo sapiens) (UniProt Q9Y2H9); details: Compound concentration 1000.0 nM
Microtubule-associated serine/threonine-protein kinase 1 (Homo sapiens), sequence (Q9Y2H9 whole entry, looked up): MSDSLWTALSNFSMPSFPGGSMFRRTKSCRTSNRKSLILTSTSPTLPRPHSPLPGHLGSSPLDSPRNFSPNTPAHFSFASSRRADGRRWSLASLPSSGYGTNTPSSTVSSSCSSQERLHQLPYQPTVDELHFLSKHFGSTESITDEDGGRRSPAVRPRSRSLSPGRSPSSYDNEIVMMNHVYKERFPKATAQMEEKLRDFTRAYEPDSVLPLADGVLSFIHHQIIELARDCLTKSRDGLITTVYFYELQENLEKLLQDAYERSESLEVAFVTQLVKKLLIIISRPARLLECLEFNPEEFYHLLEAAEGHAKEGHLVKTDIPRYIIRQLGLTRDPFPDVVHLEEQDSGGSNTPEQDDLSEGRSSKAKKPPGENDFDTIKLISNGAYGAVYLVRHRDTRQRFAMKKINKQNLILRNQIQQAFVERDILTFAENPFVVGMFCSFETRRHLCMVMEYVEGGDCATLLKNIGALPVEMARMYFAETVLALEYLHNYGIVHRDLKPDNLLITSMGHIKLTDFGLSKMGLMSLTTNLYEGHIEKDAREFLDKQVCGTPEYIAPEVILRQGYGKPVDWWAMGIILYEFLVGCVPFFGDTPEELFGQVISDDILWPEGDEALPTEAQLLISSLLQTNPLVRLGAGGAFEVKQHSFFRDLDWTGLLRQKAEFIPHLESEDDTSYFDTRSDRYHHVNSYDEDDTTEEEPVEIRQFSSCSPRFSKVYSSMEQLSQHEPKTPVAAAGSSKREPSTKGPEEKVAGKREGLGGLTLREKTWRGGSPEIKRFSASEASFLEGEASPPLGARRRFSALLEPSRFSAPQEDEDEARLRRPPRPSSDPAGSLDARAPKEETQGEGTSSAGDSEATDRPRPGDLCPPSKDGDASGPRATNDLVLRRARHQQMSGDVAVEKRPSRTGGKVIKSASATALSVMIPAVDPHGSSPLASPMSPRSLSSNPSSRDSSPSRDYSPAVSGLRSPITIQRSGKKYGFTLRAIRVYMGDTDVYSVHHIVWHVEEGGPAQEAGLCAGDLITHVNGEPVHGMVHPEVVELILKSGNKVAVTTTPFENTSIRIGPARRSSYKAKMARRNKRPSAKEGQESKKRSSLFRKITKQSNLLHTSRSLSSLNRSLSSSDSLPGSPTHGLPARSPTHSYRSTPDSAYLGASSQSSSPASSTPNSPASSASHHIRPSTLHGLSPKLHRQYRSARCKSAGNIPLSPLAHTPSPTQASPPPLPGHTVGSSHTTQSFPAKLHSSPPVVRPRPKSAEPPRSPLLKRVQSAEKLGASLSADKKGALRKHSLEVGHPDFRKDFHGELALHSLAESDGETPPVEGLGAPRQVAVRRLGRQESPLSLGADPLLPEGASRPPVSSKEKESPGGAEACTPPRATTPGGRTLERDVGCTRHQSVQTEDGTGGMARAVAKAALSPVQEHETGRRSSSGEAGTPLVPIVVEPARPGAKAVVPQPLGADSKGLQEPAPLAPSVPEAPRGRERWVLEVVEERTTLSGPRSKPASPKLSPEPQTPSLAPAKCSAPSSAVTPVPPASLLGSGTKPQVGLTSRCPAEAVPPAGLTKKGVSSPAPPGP

[14] = biological target: Cyclin-dependent kinase 8 (Homo sapiens) (UniProt P49336); details: Compound concentration 1000.0 nM
[15] = test system: T1, Receptor-type tyrosine-protein kinase FLT3 (Homo sapiens), P36888 [D835Y]; details: Compound concentration 1000.0 nM
T1 sequence (whole entry): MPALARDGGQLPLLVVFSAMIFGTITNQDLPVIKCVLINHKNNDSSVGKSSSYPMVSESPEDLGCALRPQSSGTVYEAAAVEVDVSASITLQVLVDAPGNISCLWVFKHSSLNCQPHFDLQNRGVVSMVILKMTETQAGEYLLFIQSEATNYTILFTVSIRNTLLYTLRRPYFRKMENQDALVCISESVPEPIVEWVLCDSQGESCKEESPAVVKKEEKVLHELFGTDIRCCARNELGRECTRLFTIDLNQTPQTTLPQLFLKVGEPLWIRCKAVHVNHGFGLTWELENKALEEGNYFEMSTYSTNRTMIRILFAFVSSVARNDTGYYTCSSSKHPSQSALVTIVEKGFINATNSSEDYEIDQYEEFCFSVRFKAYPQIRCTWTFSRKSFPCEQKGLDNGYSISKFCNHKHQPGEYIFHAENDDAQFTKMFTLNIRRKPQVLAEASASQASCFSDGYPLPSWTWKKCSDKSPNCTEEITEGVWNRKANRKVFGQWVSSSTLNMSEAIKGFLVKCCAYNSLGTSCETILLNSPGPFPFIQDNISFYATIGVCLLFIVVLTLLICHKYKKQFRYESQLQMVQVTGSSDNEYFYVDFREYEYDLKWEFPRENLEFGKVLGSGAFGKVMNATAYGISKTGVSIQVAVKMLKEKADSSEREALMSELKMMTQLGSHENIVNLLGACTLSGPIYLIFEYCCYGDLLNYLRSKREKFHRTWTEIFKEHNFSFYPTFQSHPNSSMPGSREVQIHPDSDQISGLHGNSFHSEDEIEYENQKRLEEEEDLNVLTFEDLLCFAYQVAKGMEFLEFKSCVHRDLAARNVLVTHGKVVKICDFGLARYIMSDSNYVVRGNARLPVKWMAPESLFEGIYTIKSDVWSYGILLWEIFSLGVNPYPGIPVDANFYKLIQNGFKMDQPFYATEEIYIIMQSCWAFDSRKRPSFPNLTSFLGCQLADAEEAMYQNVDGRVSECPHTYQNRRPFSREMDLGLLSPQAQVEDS

[16] = biological target: Cyclin-dependent kinase 11B (Homo sapiens) (UniProt P21127); details: Compound concentration 1000.0 nM
[17] = biological target: Tyrosine-protein kinase Fer (Homo sapiens) (UniProt P16591); details: Compound concentration 1000.0 nM
Tyrosine-protein kinase Fer (Homo sapiens), sequence (P16591 whole entry, looked up): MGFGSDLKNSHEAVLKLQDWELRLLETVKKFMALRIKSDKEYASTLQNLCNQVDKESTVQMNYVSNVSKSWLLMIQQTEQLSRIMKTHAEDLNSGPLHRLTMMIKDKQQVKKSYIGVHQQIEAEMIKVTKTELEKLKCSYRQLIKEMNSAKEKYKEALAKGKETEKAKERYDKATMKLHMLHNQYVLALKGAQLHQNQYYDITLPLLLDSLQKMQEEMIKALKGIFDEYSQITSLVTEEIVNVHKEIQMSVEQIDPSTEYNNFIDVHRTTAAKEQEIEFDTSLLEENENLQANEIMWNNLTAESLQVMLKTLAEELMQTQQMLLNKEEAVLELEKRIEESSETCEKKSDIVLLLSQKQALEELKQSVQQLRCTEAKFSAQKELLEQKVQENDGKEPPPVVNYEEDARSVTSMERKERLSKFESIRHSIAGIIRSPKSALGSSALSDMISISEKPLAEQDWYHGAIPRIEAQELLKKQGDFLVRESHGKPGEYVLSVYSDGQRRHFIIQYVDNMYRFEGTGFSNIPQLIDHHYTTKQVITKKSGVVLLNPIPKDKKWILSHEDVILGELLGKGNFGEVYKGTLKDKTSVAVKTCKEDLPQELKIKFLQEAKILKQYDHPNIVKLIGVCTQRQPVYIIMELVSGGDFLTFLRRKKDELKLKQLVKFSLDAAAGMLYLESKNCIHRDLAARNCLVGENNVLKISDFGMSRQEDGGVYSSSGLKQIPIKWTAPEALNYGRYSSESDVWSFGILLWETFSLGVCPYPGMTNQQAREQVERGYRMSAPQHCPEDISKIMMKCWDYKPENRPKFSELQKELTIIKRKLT

[18] = biological target: T2, Serine/threonine-protein kinase DCLK2 (Homo sapiens) (UniProt Q8N568); details: Compound concentration 1000.0 nM
T2 sequence (whole entry): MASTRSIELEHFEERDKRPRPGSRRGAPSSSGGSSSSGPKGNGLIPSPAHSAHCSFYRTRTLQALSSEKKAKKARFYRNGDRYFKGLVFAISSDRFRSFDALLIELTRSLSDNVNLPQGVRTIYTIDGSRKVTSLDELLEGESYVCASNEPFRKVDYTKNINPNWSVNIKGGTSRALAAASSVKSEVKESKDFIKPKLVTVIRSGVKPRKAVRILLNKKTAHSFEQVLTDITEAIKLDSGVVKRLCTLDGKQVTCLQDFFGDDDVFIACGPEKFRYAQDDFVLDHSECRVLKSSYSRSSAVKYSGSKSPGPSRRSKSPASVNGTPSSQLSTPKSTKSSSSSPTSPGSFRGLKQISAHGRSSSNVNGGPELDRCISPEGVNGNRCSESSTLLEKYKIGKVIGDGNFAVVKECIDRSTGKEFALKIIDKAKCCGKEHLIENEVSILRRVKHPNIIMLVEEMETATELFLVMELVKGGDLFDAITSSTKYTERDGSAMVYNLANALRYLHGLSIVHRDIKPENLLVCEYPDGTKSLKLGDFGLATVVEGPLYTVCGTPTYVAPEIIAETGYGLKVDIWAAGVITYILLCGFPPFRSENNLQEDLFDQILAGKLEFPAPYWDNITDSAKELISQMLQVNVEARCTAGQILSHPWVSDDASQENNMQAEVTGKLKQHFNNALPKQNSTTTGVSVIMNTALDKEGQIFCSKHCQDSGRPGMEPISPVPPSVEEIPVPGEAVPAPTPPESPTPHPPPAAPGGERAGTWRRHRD

[19] = biological target: Serine/threonine-protein kinase 10 (Homo sapiens) (UniProt O94804); details: Compound concentration 1000.0 nM
Serine/threonine-protein kinase 10 (Homo sapiens), sequence (O94804 whole entry, looked up): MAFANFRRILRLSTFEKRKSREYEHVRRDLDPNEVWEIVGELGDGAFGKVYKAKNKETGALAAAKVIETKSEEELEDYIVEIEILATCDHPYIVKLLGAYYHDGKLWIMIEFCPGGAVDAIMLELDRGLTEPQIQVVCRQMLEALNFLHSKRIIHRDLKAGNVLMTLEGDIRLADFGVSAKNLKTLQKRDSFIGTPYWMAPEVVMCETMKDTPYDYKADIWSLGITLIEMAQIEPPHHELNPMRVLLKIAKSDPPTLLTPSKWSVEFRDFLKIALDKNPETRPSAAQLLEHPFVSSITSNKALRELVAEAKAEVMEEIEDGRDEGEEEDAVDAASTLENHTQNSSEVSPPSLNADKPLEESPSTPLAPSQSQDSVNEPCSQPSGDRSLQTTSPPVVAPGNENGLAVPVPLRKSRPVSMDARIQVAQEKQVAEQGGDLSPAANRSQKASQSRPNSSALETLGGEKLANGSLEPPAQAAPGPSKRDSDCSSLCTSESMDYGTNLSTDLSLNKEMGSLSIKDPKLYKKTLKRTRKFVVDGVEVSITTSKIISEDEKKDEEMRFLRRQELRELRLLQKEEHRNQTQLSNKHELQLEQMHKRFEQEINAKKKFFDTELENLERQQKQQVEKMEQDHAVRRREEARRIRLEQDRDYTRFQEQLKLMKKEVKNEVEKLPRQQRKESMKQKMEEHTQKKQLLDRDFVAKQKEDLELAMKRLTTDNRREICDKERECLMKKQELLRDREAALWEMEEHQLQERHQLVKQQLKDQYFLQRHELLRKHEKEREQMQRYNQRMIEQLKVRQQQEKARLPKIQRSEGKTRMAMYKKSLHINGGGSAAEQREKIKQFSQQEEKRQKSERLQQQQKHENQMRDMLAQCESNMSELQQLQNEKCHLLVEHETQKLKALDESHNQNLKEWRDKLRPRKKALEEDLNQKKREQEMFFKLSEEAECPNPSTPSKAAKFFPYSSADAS

CN(C)C(=O)Cn1cc(-c2nc(C3(c4ccc(-c5cnc(N)nc5)cc4)CC3)no2)cn1 [BI 0153]
inactive: residual activity [1] 66% | residual activity [2] 100% | residual activity [3] 99% | residual activity [4] 63% | residual activity [5] 100% | residual activity [6] 81% | inhibition [7] 8.33% | residual activity [8] 100% | residual activity [9] 100% | residual activity [10] 86% | residual activity [11] 100% | residual activity [12] 82% | residual activity [13] 100% | residual activity [14] 100% | residual activity [15] 100% | residual activity [16] 96% | residual activity [17] 79% | residual activity [18] 96% | residual activity [19] 100%

CN(C)C(=O)Cn1cc(-c2nc([C@@](C)(c3ccc(-c4cnc(N)nc4)cc3)C3CC3)no2)cn1 [BI 665915]
inactive: residual activity [1] 98% | residual activity [2] 100% | residual activity [3] 100% | residual activity [4] 96% | residual activity [5] 90% | residual activity [6] 100% | inhibition [7] 18.9% | residual activity [8] 100% | residual activity [9] 85% | residual activity [10] 100% | residual activity [11] 93% | residual activity [12] 58% | residual activity [13] 97% | residual activity [14] 89% | residual activity [15] 85% | residual activity [16] 79% | residual activity [17] 94% | residual activity [18] 91% | residual activity [19] 89%
